{"source": "patent US20100015128A1", "about": "“GRP78 as a Predictor of Responsiveness to Therapeutic Agents” (UNIVERSITY OF SOUTHERN CALIFORNIA, priority 2006, published 2010)", "key": {"GRP78": {"system": "GRP78", "assay": "Western blot of GRP78 in SK-N-SH cells with H129 antibody", "assay_type": "cell-based, human", "conditions": "0.5 μM thapsigargin 16 hours", "protocol": "FIGS. 11A, 11B and 11C show specific detection of GRP78 by H129 antibody. FIG. 11A is a Western blot assay. The human neuroblastoma SK-N-SH cells were either grown under normal conditions (−) or treated with 0.5 μM thapsigargin for 16 hours. Fifty μg of total cell lysate prepared from these cells were subjected to Western blot analysis, using the […] (1:1000 dilution). […] In FIG. 11B, Chinese hamster ovary (CHO) cells expressing basal level of GRP78 and its derivative C.1 cells overexpressing GRP78 were embedded in paraffin after fixation in formalin. The sections prepared from these blocks were stained with the immunohistochemical technique using the H129 antibody (1:100 dilution). GRP78 level, as depicted by brown staining, was elevated in C.1 cells as compared to CHO cells (600×). In FIG. 11C, paraffin slides from breast cancer patients were stained with the H129 antibody with the immunohistochemical technique. Examples of plasma cell staining from two different patients are shown."}, "BIK": {"system": "BIK", "assay": "BIK protein induction under stress conditions (Western blot)", "assay_type": "cell-based, human", "conditions": "human cells", "source_text": "Cell lines and culture conditions. The estrogen-dependent cell line MCF-7/BUS was provided by A. M. Soto (Tufts University, Medford, Mass.) and has been described (Soto et al., Environ. Health Perspect. 103:113-22 (1995)). The human embryonic kidney 293T cells and MCF-7/BUS cells were maintained in DMEM supplemented with 10% fetal bovine serum. Estrogen starvation of MCF-7/BUS cells was done as described (Hur et al., PNAS 101:2351-6 (2004)). Briefly, the cells were washed thrice with phenol red-free DMEM and incubated in washing medium at 37° C. for 60 minutes. The MCF-7/BUS cells were then cultured in phenol red-free DMEM supplemented with 5% charcoal/dextran-stripped fetal bovine serum for 24 to 72 hours as indicated. For etoposide treatment, the cells were incubated with 50 μmol/L etoposide for 6 hours and cultured for another 24 hours before harvest.\nWestern blots and quantitation. The Western blots were done as described (Lee, Methods 35:373-81 (2005)). The primary antibodies were goat anti-BIK (N-19, Santa Cruz Biotechnology, Santa Cruz, Calif.), rat anti-Grp78 (76-E6, Santa Cruz Biotechnology), rat anti-GRP94, rabbit anti-calnexin, rabbit anti-calreticulin (Stressgen, Ann Arbor, Mich.), mouse anti-Flag M2, mouse anti-poly(ADP-ribose) polymerase (PARP; F-2, Santa Cruz Biotechnology, Santa Cruz, Calif.), and mouse anti-h-actin (Sigma-Aldrich, St. Louis, Mo.). Anti-h-actin was diluted at 1:2,000; anti-BIK at 1:500; and other antibodies at 1:1,000. Respective horseradish peroxidase-conjugated secondary antibodies (Santa Cruz Biotechnology, Santa Cruz, Calif.) at 1:1,000 dilution were used. The Western blots were quantitated by Fluor-S® MultiImager (Bio-Rad, Hercules, Calif.) according to the manufacturer's instructions. All quantitations were normalized against h-actin."}}, "data": [{"smiles": "C/C=C(/C)C(=O)O[C@H]1C(C)=C2[C@H]([C@@H]1OC(=O)CCCCCCC)[C@@](C)(OC(C)=O)C[C@H](OC(=O)CCC)[C@@]1(O)[C@H]2OC(=O)[C@@]1(C)O", "note": "[thapsigargin]", "values": [{"measurement": "GRP78 protein band", "setting": "GRP78", "result": "highly inducible"}, {"measurement": "induction of BIK by ER stress inducers", "setting": "BIK", "result": "do not induce"}]}]}
